From patent US20180214428A1, “3-(1H-INDOL-2-YL)-1H-PYRAZOLO[3,4-B]PYRIDINES AND THERAPEUTIC USES THEREOF” (Samumed, LLC, priority 2015, published 2018)

Assays:
[1] = system: Wnt activity (Sp5-Luc reporter gene, SW480 colon carcinoma cells); test: Screening assay for Wnt activity: Sp5-Luc reporter gene assay in SW480 cells; assay type: cell-based, human; conditions: Homo sapiens, overnight incubation
Text: The screening assay for Wnt activity is described as follows. Reporter cell lines can be generated by stably transducing cancer cell lines (e.g., colon cancer) or primary cells (e.g., IEC-6 intestinal cells) with a lentiviral construct that includes a Wnt-responsive promoter driving expression of the firefly luciferase gene.
SW480 colon carcinoma cells were transduced with a lentiviral vector expressing luciferase with a human Sp5 promoter consisting of a sequence of eight TCF/LEF binding sites. SW480 cells stably expressing the Sp5-Luc reporter gene and a hygromycin resistance gene were selected by treatment with 150 μg/mL of hygromycin for 7 days. These stably transduced SW480 cells were expanded in cell culture and used for all further screening activities. Each compound was dissolved in DMSO as a 10 mM stock and used to prepare compound source plates. Serial dilution (1:3, 10-point dose-response curves starting from 10 μM) and compound transfer was performed using the ECHO 550 (Labcyte, Sunnyvale, Calif.) into 384-well white solid bottom assay plates (Greiner Bio-One) with appropriate DMSO backfill for a final DMSO concentration of 0.1%. For Sp5-Luc reporter gene assays, the cells were plated at 4,000 cells/well in 384-well plates with medium containing 1% fetal bovine serum and incubated overnight at 37° C. and 5% CO2. Following incubation, 20 μl of BrightGlo luminescence reagent (Promega) was added to each well of the 384-well assay plates. The plates were placed on an orbital shaker for 2 min and then luminescence was quantified using the Envision (Perkin Elmer) plate reader. Readings were normalized to DMSO only treated cells, and normalized activities were utilized for EC50 calculations using the dose-response log (inhibitor) vs. response variable slope (four parameters) nonlinear regression feature available in GraphPad Prism 5.0 (or Dotmatics). For EC50 of >10 μM, the percent inhibition at 10 μM is provided.

SW480 colon cancer cells = test: Cell viability assay (CellTiter-Blue) in SW480 colon cancer cells; assay type: cell-based, human; conditions: Homo sapiens, 96 h, four days, CellTiter-Blue
Experimental: Representative compounds were screened using the following assay procedure to assess the effect on cell viability as described below.
Each compound was dissolved in DMSO as a 10 mM stock and used to prepare compound source plates. Serial dilution (1:3, 8-point dose-response curves from 10 μM to 0.0045 μM) and compound transfer was performed using the ECHO 550 (Labcyte, Sunnyvale, Calif.) into 96-well clear bottom, black-walled plates (Corning-Costar).
Approximately 2×10^3 SW480 colon cancer cells were seeded into each well and allowed to incubate in the presence or absence of compound for four days at 37° C./5% CO2. Eight replicates of DMSO-treated cells served as controls and cells treated with compound were performed in duplicate.
After incubation, 20 μL of CellTiter-Blue (Promega) was added to each well allowed to incubate for approximately 3 hours. This reagent was a buffered solution which contains resazurin, metabolically active cells were able to reduce rezarurin (blue) into resorufin (pink) which was highly fluorescent. This measured fluorescence was used as a readout for cell viability.
After incubation, the plates were read at Ex 560 nm Em 590 nm (Cytation 3, BioTek). Dose-response curves were generated and EC50 concentration values were calculated using non-linear regression curve fit in the GraphPad Prism (San Diego, Calif.) or Dotmatics' Studies Software (Bishops Stortford, UK). For EC50 of >10 μM, the percent inhibition at 10 μM is provided.

[2] = system: primary human fibroblasts derived from IPF patients (LL29 cells); test: Inhibition of the fibrotic process: αSMA staining in TGF-β1 treated LL29 fibroblasts; assay type: cell-based; conditions: Homo sapiens, Fibroblast, 96 h, TGF-β1 20 ng/mL, 4 days, % αSMA positive cells
Text: Representative compounds were screened using primary human fibroblasts (derived from IPF patients) treated with TGF-β1 to determine their ability to inhibit the fibrotic process.
Primary human fibroblasts derived from IPF patients (LL29 cells) [^1Xiaoqiu Liu, et. al., “Fibrotic Lung Fibroblasts Show Blunted Inhibition by cAMP Due to Deficient cAMP Response Element-Binding Protein Phosphorylation”, Journal of Pharmacology and Experimental Therapeutics (2005), 315(2), 678-687; ^2Watts, K. L., et. al., “RhoA signaling modulates cyclin D1 expression in human lung fibroblasts; implications for idiopathic pulmonary fibrosis”, Respiratory Research (2006), 7(1), 88] were obtained from American Type Culture Collection (ATCC) and expanded in F12 medium supplemented with 15% Fetal Bovine Serum and Penicillin/Streptomycin.
Each compound was dissolved in DMSO as a 10 mM stock and used to prepare compound source plates. Serial dilution (1:2, 11-point dose-response curves from 10 μM to […]) and compound transfer was performed using the ECHO 550 (Labcyte, Sunnyvale, Calif.) into 384-well clear bottom assay plates (Greiner Bio-One) with appropriate DMSO backfill for a final DMSO concentration of 0.1%. LL29 cells are plated at 1,500 cells/well in 80 μL/well F12 medium supplemented with 1% Fetal Bovine Serum. One hour after addition of the cells, TGF-01 (Peprotech; 20 ng/mL) was added to the plates to induce fibrosis (ref. 1 and 2 above). Wells treated with TGF-β1 and containing DMSO were used as controls. Cells were incubated at 37° C. and 5% CO2 for 4 days. Following incubation for 4 days, SYTOX green nucleic acid stain (Life Technologies [Thermo Fisher Scientific]) was added to the wells at a final concentration of 1 μM and incubated at room temperature for 30 min. Cells were then fixed using 4% formaldehyde (Electron Microscopy Sciences), washed 3 times with PBS followed by blocking and permeabilization using 3% Bovine Serum Albumin (BSA; Sigma) and 0.3% Triton X-100 (Sigma) in PBS. Cells were then stained with antibody specific to α-smooth muscle actin (aSMA; Abcam) (ref. 1 and 2 above) in 3% Bovine Serum Albumin (BSA; Sigma) and 0.3% Triton X-100 (Sigma) in PBS, and incubated overnight at 4° C. Cells were then washed 3 times with PBS, followed by incubation with Alexa Flor-647 conjugated secondary antibody (Life Technologies [Thermo Fisher Scientific]) and DAPI at room temperature for 1 hour. Cells were then washed 3 times with PBS and plates were sealed for imaging. αSMA staining was imaged by excitation at 630 nm and emission at 665 nm and quantified using the Compartmental Analysis program on the CellInsight CX5 (Thermo Scientific). Dead or apoptotic cells were excluded from analysis based on positive SYTOX green staining. % of total cells positive for aSMA were counted in each well and normalized to the average of 11 wells treated with TGF-01 on the same plate using Dotmatics' Studies Software. The normalized averages (fold change over untreated) of 3 replicate wells for each compound concentration were used to create dose-responses curves and EC50 values were calculated using non-linear regression curve fit in the Dotmatics' Studies Software. For EC50 of >10 μM, the percent inhibition at 10 μM is provided.

IL-6 = IL-6 inhibition in LPS-stimulated THP-1 monocytes (HTRF); assay type: cell-based, human; conditions: Homo sapiens; THP-1 cells, 500 ng/mL LPS, 22 h, HTRF IL-6 readout; 10-point dose-response from 10 μM
Experimental: Human monocyte cell line (THP-1 cells; Catalog # TIB-202, ATCC, Manassas, Va.) were cultured in Roswell Park Memorial Institute (RPMI) 1640 Medium (Catalog #21870-100, Buffalo, N.Y.) with 1% L-glutamine, 1% HEPES, 1% Sodium Pyruvate, 2% Sodium Bicarbonate supplemented with 100 units/mL penicillin, 50 μg/mL streptomycin, 2-mercaptoethanol (0.05 mM) [basal medium] and 10% fetal bovine serum (Catalog #16140089, Life Technologies, Carlsbad, Calif.) at 37° C. and 5% CO2.
THP-1 cells were cultured in basal media with 1% FBS for 24 hours before the start of the assay. Each compound was dissolved in DMSO as a 10 mM stock and used to prepare compound source plates. Serial dilution (1:3, 10-point dose-response curves starting from 10 μM) and compound transfer was performed using the ECHO 550 (Labcyte, Sunnyvale, Calif.) into 384-well white low volume assay plates (Greiner Bio-One) with appropriate DMSO backfill for a final DMSO concentration of 0.1%. THP-1 cells were plated at 5000 cells/well in the 384-well plates and incubated at 37° C. for 2 h. 500 ng/mL of LPS was added after 2 hours and cells were incubated for another 22 hours at 37° C. Plates were spun in a centrifuge for 1 minute at […] and a mixture of anti-IL6 XL665, and anti-IL6 Cryptate diluted in reconstitution buffer (Cisbio Inc.) was added to each well. Following incubation for 3 hrs at room temperature, Homogeneous Time-Resolved Fluorescence (HTRF) was measured using the Envision (Perkin Elmer) at 665 nm and […]. The ratio of fluorescence at 665 nm to 620 nm was used as a readout for IL6 quantification. All samples were processed in duplicate. Readings were normalized to DMSO treated cells and normalized activities were utilized for EC50 calculations using the dose-response log (inhibitor) vs. response variable slope (four parameters) nonlinear regression feature available in GraphPad Prism 5.0 (or Dotmatics). For EC50 of >10 μM, the percent inhibition at 10 μM is provided.

EC50 [1] | EC50 (SW480 colon cancer cells) | EC50 (IL-6) | SMILES | EC50 [2]
1320 nM | 1120 nM | 1370 nM | Cn1cc(-c2cnc3[nH]nc(-c4cc5c(-c6cccs6)cccc5[nH]4)c3c2)cn1 [Compound 702, 5-(1-Methyl-1H-pyrazol-4-yl)-3-(4-(thiophen-2-yl)-1H-indol-2-yl)-1H-pyrazolo[3,4-b]pyridine] | 874 nM
3420 nM | 3270 nM | 477 nM | Cc1ccncc1-c1cnc2[nH]nc(-c3cc4c(N5CCN(C)CC5)cccc4[nH]3)c2c1 [Compound 205, 3-(4-(4-Methylpiperazin-1-yl)-1H-indol-2-yl)-5-(4-methylpyridin-3-yl)-1H-pyrazolo[3,4-b]pyridine] | 2560 nM
1080 nM | 9940 nM | 1190 nM | O=C(Nc1cncc(-c2cnc3[nH]nc(-c4cc5c(N6CCCCC6)cccc5[nH]4)c3c2)c1)C1CC1 [Compound 164, N-(5-(3-(4-(piperidin-1-yl)-1H-indol-2-yl)-1H-pyrazolo[3,4-b]pyridin-5-yl)pyridin-3-yl)cyclopropanecarboxamide] | 4330 nM
3810 nM | 3440 nM | 7400 nM | CN(C)c1cncc(-c2cnc3[nH]nc(-c4cc5ncccc5[nH]4)c3c2)c1 [Compound 485, 5-(3-(1H-Pyrrolo[3,2-b]pyridin-2-yl)-1H-pyrazolo[3,4-b]pyridin-5-yl)-N,N-dimethylpyridin-3-amine] | 2790 nM
283 nM | 1120 nM | 1440 nM | CN(C)c1cncc(-c2cnc3[nH]nc(-c4cc5c(-c6cc(F)cc(CNS(C)(=O)=O)c6)cccc5[nH]4)c3c2)c1 [Compound 457, N-(3-(2-(5-(5-(Dimethylamino)pyridin-3-yl)-1H-pyrazolo[3,4-b]pyridin-3-yl)-1H-indol-4-yl)-5-fluorobenzyl)methanesulfonamide] | 1720 nM
732 nM | 3460 nM | 350 nM | CC(C)(C)C(=O)Nc1cncc(-c2cnc3[nH]nc(-c4cc5ccccc5[nH]4)c3c2)c1 [Compound 235, N-(5-(3-(1H-Indol-2-yl)-1H-pyrazolo[3,4-b]pyridin-5-yl)pyridin-3-yl) pivalamide] | 282 nM
210 nM | 1690 nM | 547 nM | CS(=O)(=O)NCc1cc(F)cc(-c2cccc3[nH]c(-c4n[nH]c5ncc(-c6cncc(NC(=O)c7ccccc7)c6)cc45)cc23)c1 [Compound 461, N-(5-(3-(4-(3-Fluoro-5-(methylsulfonamidomethyl)phenyl)-1H-indol-2-yl)-1H-pyrazolo[3,4-b]pyridin-5-yl)pyridin-3-yl)benzamide] | 1340 nM
371 nM | 1820 nM | 753 nM | CC(C)Nc1cncc(-c2cnc3[nH]nc(-c4cc5c(-c6ccccc6F)cccc5[nH]4)c3c2)c1 [Compound 57, 5-(3-(4-(2-Fluorophenyl)-1H-indol-2-yl)-1H-pyrazolo[3,4-b]pyridin-5-yl)-N-isopropylpyridin-3-amine] | 411 nM
